The test system of experiment [1] is N2a695 cells. In words: Aβ38, Aβ40, Aβ42 in conditioned media of N2a695 cells, MSD ELISA. Type of experiment: cell-based. The settings on record: N2a695 cell supernatant, 5 h, single experiment. How it is done:
N2a695 were cultured in 1:1 OptiMem Reduced Serum Media (Life Technologies): Dulbecco’s Modified Eagle Medium ([+] 4.5 g/L D-glucose [+] L-Glutamine; [−] Sodium pyruvate (Life Technologies) supplemented with 5% fetal bovine serum, 0.4% Penstrep and 0.4% Geneticin and incubated at 37°C in 5% CO2. Antibodies were obtained from The Laboratory of Molecular and Cellular Neuroscience at The Rockefeller University. Human Aβ40 and Aβ42 ELISA plates (Life Technologies) and Plus MSD (Mesoscale Discovery) plates for Aβ Peptide (Aβ38, Aβ40 and Aβ42) Panel 1 (6E10) Kit (Catalog number K15200G) were obtained from Thermo Fisher, Life Technologies and Meso Scale Discovery.
N2a695 cells were used to screen all new compounds and in the follow-up studies with compounds found active in the preliminary screen. In a typical experiment, 6-well tissue culture plates (Corning) were seeded at 4.0 × 10^5–4.5 × 10^5 N2a695 cells/mL, 2 mL/well for overnight incubation. When cells were >95% confluent, media were exchanged with fresh media containing 10 µM solutions of compounds or DMSO carrier alone and cells were incubated at 37°C in 5% CO2 for 5 h. Culture media were collected and soluble Aβ concentrations in the media were determined by ELISA or MSD plates for human Aβ peptides as per manufacturer instructions. Signals for Aβ were measured using Perkin Elmer Envision and SQ120 MSD ELISA reader. Follow-up studies with N2a695 cells were performed similarly.
Similarly, we evaluated all IMTi-1 and IMTi-2 analogs, including the Boc-protected compounds, using N2a695 cells. […] To further examine the activities of the active analogs and whether IMTi’s has any bias on amyloidogenic vs. nonamyloidogenic cleavage of APP, we retested dozens of IMTi-1 and 2 analogs, including several found active in the screening assay and some tested for the first time using N2a695 cells as above, and performed MSD ELISA of the conditioned media to measure Aβ40, Aβ38, and Aβ42 peptides simultaneously.

The test system of experiment [2] is N2a695 cells. The experiment is described as above. As to conditions: N2a695 cell supernatant, 5 h, single experiment. Type of experiment: cell-based. This is another data set of the same source.

The structures appear in SMILES notation. Where two headings read alike, the source gives them in different places.

Turning to `Cc1ccccc1Nc1nccc(-c2cncc(NC(=O)c3ccc(C4CCCNC4)cc3)c2)n1` (stereo not drawn) [Compound 1L], the results for the activity at 10 µM in the experiment on N2a695 cells [1] (read-out: % Aβ38 of DMSO ctrl), in the experiment on N2a695 cells [1] (read-out: % Aβ40 of DMSO ctrl) and with N2a695 cells [1] (read-out: % Aβ42 of DMSO ctrl) were 52%, 21% and 17%, respectively. The activity at 5 µM with N2a695 cells [2] (read-out: % Aβ38 of DMSO ctrl) stood at 107%; in the experiment on N2a695 cells [2] (read-out: % Aβ40 of DMSO ctrl), 48%; in the experiment on N2a695 cells [2] (read-out: % Aβ42 of DMSO ctrl), 43%.

As to `Cc1ccccc1Nc1nccc(-c2cccc(NC(=O)c3ccc(CN4CCN(C)CC4)cc3)c2)n1` [Compound 1a], the results for the activity at 10 µM with N2a695 cells [1] (read-out: % Aβ38 of DMSO ctrl), with N2a695 cells [1] (read-out: % Aβ40 of DMSO ctrl) and with N2a695 cells [1] (read-out: % Aβ42 of DMSO ctrl) were 86%, 40% and 35%, respectively. Moreover, the activity at 5 µM was found to be 105% in the experiment on N2a695 cells [2] (read-out: % Aβ38 of DMSO ctrl), 57% in the experiment with N2a695 cells [2] (read-out: % Aβ40 of DMSO ctrl) and 49% in the experiment on N2a695 cells [2] (read-out: % Aβ42 of DMSO ctrl).

For the molecule `Cc1ccccc1Nc1nccc(-c2cncc(NC(=O)c3ccc(CN4CCNCC4)cc3)c2)n1` [Compound 1b], the figures for the activity at 10 µM in the experiment with N2a695 cells [1] (read-out: % Aβ38 of DMSO ctrl), with N2a695 cells [1] (read-out: % Aβ40 of DMSO ctrl) and with N2a695 cells [1] (read-out: % Aβ42 of DMSO ctrl) were 61%, 34% and 33%, respectively. Moreover, the activity at 5 µM with N2a695 cells [2] (read-out: % Aβ38 of DMSO ctrl) came out at 95%; in the experiment on N2a695 cells [2] (read-out: % Aβ40 of DMSO ctrl) it was 56%; in the experiment on N2a695 cells [2] (read-out: % Aβ42 of DMSO ctrl), 53%.

As for `Cc1ccccc1Nc1nccc(-c2cncc(NC(=O)c3ccc(CCN(C)C)cc3)c2)n1` [Compound 1e], the activity at 10 µM in the experiment on N2a695 cells [1] (read-out: % Aβ38 of DMSO ctrl) worked out at 91%; in the experiment on N2a695 cells [1] (read-out: % Aβ40 of DMSO ctrl) it was 46%; in the experiment on N2a695 cells [1] (read-out: % Aβ42 of DMSO ctrl) it was 44%. The activity at 5 µM with N2a695 cells [2] (read-out: % Aβ38 of DMSO ctrl) worked out at 99%; in the experiment with N2a695 cells [2] (read-out: % Aβ40 of DMSO ctrl) it was 57%; with N2a695 cells [2] (read-out: % Aβ42 of DMSO ctrl), 54%.

As to `Cc1ccccc1Nc1nccc(-c2cncc(NC(=O)c3ccc(CNCC(C)(C)C)cc3)c2)n1` [Compound 1h], the activity at 10 µM in the experiment with N2a695 cells [1] (read-out: % Aβ38 of DMSO ctrl) amounted to 80%; with N2a695 cells [1] (read-out: % Aβ40 of DMSO ctrl), 43%; in the experiment with N2a695 cells [1] (read-out: % Aβ42 of DMSO ctrl) it was 43%. The activity at 5 µM is 106% with N2a695 cells [2] (read-out: % Aβ38 of DMSO ctrl), 64% with N2a695 cells [2] (read-out: % Aβ40 of DMSO ctrl) and 58% in the experiment on N2a695 cells [2] (read-out: % Aβ42 of DMSO ctrl).

Take `Cc1ccccc1Nc1nccc(-c2cccc(NC(=O)c3ccc(CNCC(C)(C)C)cc3)c2)n1` [Compound 1i]: the figures for the activity at 10 µM with N2a695 cells [1] (read-out: % Aβ38 of DMSO ctrl), with N2a695 cells [1] (read-out: % Aβ40 of DMSO ctrl) and in the experiment on N2a695 cells [1] (read-out: % Aβ42 of DMSO ctrl) were 85%, 41% and 46%, respectively. In addition, the figures for the activity at 5 µM in the experiment with N2a695 cells [2] (read-out: % Aβ38 of DMSO ctrl), with N2a695 cells [2] (read-out: % Aβ40 of DMSO ctrl) and in the experiment with N2a695 cells [2] (read-out: % Aβ42 of DMSO ctrl) were 106%, 56% and 58%, respectively.

For the molecule `Cc1ccccc1Nc1nccc(-c2cncc(NC(=O)c3ccc(CNC4CCCCC4)cc3)c2)n1` [Compound 1j], the activity at 10 µM in the experiment with N2a695 cells [1] (read-out: % Aβ38 of DMSO ctrl) was found to be 123%; in the experiment on N2a695 cells [1] (read-out: % Aβ40 of DMSO ctrl), 73%; in the experiment with N2a695 cells [1] (read-out: % Aβ42 of DMSO ctrl), 65%. Also, the activity at 5 µM was determined as 112% in the experiment with N2a695 cells [2] (read-out: % Aβ38 of DMSO ctrl), 83% in the experiment on N2a695 cells [2] (read-out: % Aβ40 of DMSO ctrl) and 75% in the experiment on N2a695 cells [2] (read-out: % Aβ42 of DMSO ctrl).

With `Cc1ccccc1Nc1nccc(-c2cccc(NC(=O)c3ccc(CNC4CCCCC4)cc3)c2)n1` [Compound 1k], the activity at 10 µM worked out at 92% with N2a695 cells [1] (read-out: % Aβ38 of DMSO ctrl), 38% in the experiment on N2a695 cells [1] (read-out: % Aβ40 of DMSO ctrl) and 38% with N2a695 cells [1] (read-out: % Aβ42 of DMSO ctrl). Also, the activity at 5 µM stood at 120% with N2a695 cells [2] (read-out: % Aβ38 of DMSO ctrl), 60% with N2a695 cells [2] (read-out: % Aβ40 of DMSO ctrl) and 56% in the experiment on N2a695 cells [2] (read-out: % Aβ42 of DMSO ctrl).

As for `Cc1ccccc1Nc1nccc(-c2cncc(NC(=O)c3ccc(C4CCCN(C)C4)cc3)c2)n1` (stereo not drawn) [Compound 1n], the activity at 10 µM with N2a695 cells [1] (read-out: % Aβ38 of DMSO ctrl) was determined as 95%; in the experiment on N2a695 cells [1] (read-out: % Aβ40 of DMSO ctrl), 42%; with N2a695 cells [1] (read-out: % Aβ42 of DMSO ctrl), 38%. Also, the activity at 5 µM is 112% in the experiment on N2a695 cells [2] (read-out: % Aβ38 of DMSO ctrl), 63% with N2a695 cells [2] (read-out: % Aβ40 of DMSO ctrl) and 56% in the experiment on N2a695 cells [2] (read-out: % Aβ42 of DMSO ctrl).

As to `Cc1ccc(Nc2nccc(-c3ccc(CNC4CCCCC4)cc3)n2)cc1NC(=O)c1cccnc1` [Compound 2b], the activity at 10 µM was found to be 74% in the experiment with N2a695 cells [1] (read-out: % Aβ38 of DMSO ctrl), 71% with N2a695 cells [1] (read-out: % Aβ40 of DMSO ctrl) and 74% in the experiment on N2a695 cells [1] (read-out: % Aβ42 of DMSO ctrl). In addition, the figures for the activity at 5 µM in the experiment with N2a695 cells [2] (read-out: % Aβ38 of DMSO ctrl), in the experiment on N2a695 cells [2] (read-out: % Aβ40 of DMSO ctrl) and in the experiment on N2a695 cells [2] (read-out: % Aβ42 of DMSO ctrl) were 93%, 90% and 88%, respectively.

Source of the values: publication PMC11493595, “Stretching the structural envelope of imatinib to reduce β-amyloid production by modulating both β- and γ-secretase cleavages of APP” (Frontiers in Chemistry, 2024).
